Results reported in PubChem BioAssay AID330 (DTP/NCI, 2004).
Several values for one entry are separate records, joined by “and”; a condition that tells them apart may be missing. Equal values may be shown once. Inconclusive results and toxic doses are left out. How the source made its calls: active means survival T/C of 150% or more; inactive means T/C below 125% in these data.

Tested on: P388 leukemia ip, CD2F1 mice, survival T/C
Test: NCI In Vivo Anticancer Drug Screen. Data for tumor model P388 Leukemia (intraperitoneal) in CD2F1 (CDF1) mice
Conditions: endpoint: median survival time, higher = longer survival
Outline: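 Mice carrying the transplanted tumor received test compound or vehicle. Survival was recorded in each group, and the value is the treated-group measurement divided by that of the vehicle-treated control group.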

[1] = dose: 12.5 mg/kg/injection, schedule: Q01DX009 (ip), vehicle: Klucel (hydroxypropylcellulose) (HPC)
[2] = dose: 25.0 mg/kg/injection, schedule: Q01DX009 (ip), vehicle: Klucel (hydroxypropylcellulose) (HPC)
[3] = dose: 50.0 mg/kg/injection, schedule: Q01DX009 (ip), vehicle: Klucel (hydroxypropylcellulose) (HPC)
[4] = dose: 200.0 mg/kg/injection, schedule: Q01DX009 (ip), vehicle: Klucel (hydroxypropylcellulose) (HPC)
[5] = dose: 60.0 mg/kg/injection, schedule: Q01DX005 (ip), vehicle: saline
[6] = dose: 120.0 mg/kg/injection, schedule: Q01DX005 (ip), vehicle: saline
[7] = dose: 240.0 mg/kg/injection, schedule: Q01DX005 (ip), vehicle: saline
[8] = dose: 100.0 mg/kg/injection, schedule: Q01DX001 (ip), vehicle: Klucel (hydroxypropylcellulose) (HPC)
[9] = dose: 200.0 mg/kg/injection, schedule: Q01DX001 (ip), vehicle: Klucel (hydroxypropylcellulose) (HPC)
[10] = dose: 400.0 mg/kg/injection, schedule: Q01DX001 (ip), vehicle: Klucel (hydroxypropylcellulose) (HPC)
[11] = dose: 50.0 mg/kg/injection, schedule: Q01DX009 (ip), vehicle: saline with Tween-80
[12] = dose: 100.0 mg/kg/injection, schedule: Q01DX009 (ip), vehicle: saline with Tween-80
[13] = dose: 50.0 mg/kg/injection, schedule: Q01DX005 (ip), vehicle: saline with Tween-80
[14] = dose: 100.0 mg/kg/injection, schedule: Q01DX005 (ip), vehicle: saline with Tween-80
[15] = dose: 200.0 mg/kg/injection, schedule: Q01DX005 (ip), vehicle: saline with Tween-80
[16] = dose: 12.5 mg/kg/injection, schedule: Q01DX009 (ip), vehicle: saline
[17] = dose: 25.0 mg/kg/injection, schedule: Q01DX009 (ip), vehicle: saline
[18] = dose: 50.0 mg/kg/injection, schedule: Q01DX009 (ip), vehicle: saline

Measured: T/C

CC1=C(C(=O)OCc2ccccc2)C(c2cccnc2)C(C(=O)OCc2ccccc2)=C(C)N1
inactive: dose: 25.0 mg/kg/injection, schedule: Q01DX009 (ip), vehicle: distilled water + Tween-80 91 % of control | dose: 50.0 mg/kg/injection, schedule: Q01DX009 (ip), vehicle: distilled water + Tween-80 100 % of control | dose: 100.0 mg/kg/injection, schedule: Q01DX009 (ip), vehicle: distilled water + Tween-80 100 % of control | dose: 200.0 mg/kg/injection, schedule: Q01DX009 (ip), vehicle: distilled water + Tween-80 98 % of control | dose: 400.0 mg/kg/injection, schedule: Q01DX009 (ip), vehicle: distilled water + Tween-80 105 % of control

CC(=O)CC(c1ccccc1)C(C(=O)O)c1ccccc1 (stereo not drawn)
inactive: dose: 100.0 mg/kg/injection, schedule: Q04DX003 (ip), vehicle: saline 93 % of control | dose: 200.0 mg/kg/injection, schedule: Q04DX003 (ip), vehicle: saline 100 % of control | dose: 400.0 mg/kg/injection, schedule: Q04DX003 (ip), vehicle: saline 100 % of control

C(=C\CSc1ccccn1)/CSc1ccccn1
inactive: [1] 107 % of control | [2] 99 % of control | [3] 90 % of control and 91 % of control | [4] 91 % of control

CCN1N=Nc2ccccc2C1O (stereo not drawn)
inactive: dose: 12.5 mg/kg/injection, schedule: Q04DX002 (ip), vehicle: saline 98 % of control | dose: 25.0 mg/kg/injection, schedule: Q04DX002 (ip), vehicle: saline 98 % of control | dose: 50.0 mg/kg/injection, schedule: Q04DX002 (ip), vehicle: saline 100 % of control

CN(C)C(=O)NO
inactive: [5] 103 % of control | [6] 99 % of control | [7] 97 % of control

CC(C)(C)c1nnc2cccc(Cl)n12
inactive: [8] 100 % of control | [9] 99 % of control | [10] 103 % of control

Nc1nc(N)c(N=O)c(Nc2cccc(Br)c2)n1
inactive: dose: 12.5 mg/kg/injection, schedule: Q01DX009 (ip), vehicle: saline with Tween-80 99 % of control | dose: 25.0 mg/kg/injection, schedule: Q01DX009 (ip), vehicle: saline with Tween-80 99 % of control | [11] 90 % of control | [12] 91 % of control

O=C(OCCO)c1ccccc1-c1c2cc3cc(Br)c(O)c(Br)c3oc-2c(Br)c(=O)c1Br
inactive: [5] 100 % of control | [6] 94 % of control | [7] 105 % of control

O=C1C=C2C(=CCOC2O)O1 (stereo not drawn)
inactive: dose: 0.3 mg/kg/injection, schedule: Q01DX009 (ip), vehicle: saline with Tween-80 106 % of control | dose: 0.3 mg/kg/injection, schedule: Q04DX003 (ip), vehicle: saline with Tween-80 106 % of control | dose: 1.0 mg/kg/injection, schedule: Q04DX003 (ip), vehicle: saline with Tween-80 114 % of control | dose: 2.0 mg/kg/injection, schedule: Q01DX009 (ip), vehicle: Klucel (hydroxypropylcellulose) (HPC) 117 % of control and 123 % of control | dose: 4.0 mg/kg/injection, schedule: Q01DX009 (ip), vehicle: Klucel (hydroxypropylcellulose) (HPC) 106 % of control and 123 % of control | dose: 10.0 mg/kg/injection, schedule: Q04DX003 (ip), vehicle: saline with Tween-80 113 % of control

CC(=O)Oc1cc(C)c2c(c1C)C1OC(=O)C(C)C1CC2 (stereo not drawn)
inactive: dose: 50.0 mg/kg/injection, schedule: Q01DX005 (ip), vehicle: Klucel (hydroxypropylcellulose) (HPC) 100 % of control | dose: 100.0 mg/kg/injection, schedule: Q01DX005 (ip), vehicle: Klucel (hydroxypropylcellulose) (HPC) 103 % of control | dose: 200.0 mg/kg/injection, schedule: Q01DX005 (ip), vehicle: Klucel (hydroxypropylcellulose) (HPC) 98 % of control

Cc1cccc(C)c1NC(=O)C(=O)/C(=C(\N)c1ccccc1)c1ccccc1
inactive: [13] 101 % of control | [14] 94 % of control | [15] 90 % of control

O=C(/C=C/c1ccccc1)NC1C=Nc2ccccc2NC1=O (stereo not drawn)
inactive: dose: 60.0 mg/kg/injection, schedule: Q01DX005 (ip), vehicle: saline with Tween-80 92 % of control | dose: 120.0 mg/kg/injection, schedule: Q01DX005 (ip), vehicle: saline with Tween-80 92 % of control | dose: 240.0 mg/kg/injection, schedule: Q01DX005 (ip), vehicle: saline with Tween-80 99 % of control

NC(=S)c1cccc(C2Nc3ccccc3S2)c1 (stereo not drawn)
inactive: dose: 100.0 mg/kg/injection, schedule: Q04DX002 (ip), vehicle: saline with Tween-80 94 % of control | dose: 200.0 mg/kg/injection, schedule: Q04DX002 (ip), vehicle: saline with Tween-80 95 % of control | dose: 400.0 mg/kg/injection, schedule: Q04DX002 (ip), vehicle: saline with Tween-80 96 % of control

COc1ccc([N+](=O)[O-])c(OC(C)=O)c1OC
inactive: dose: 12.5 mg/kg/injection, schedule: Q01DX009 (ip), vehicle: other 104 % of control | dose: 50.0 mg/kg/injection, schedule: Q01DX009 (ip), vehicle: other 93 % of control | dose: 100.0 mg/kg/injection, schedule: Q01DX009 (ip), vehicle: other 89 % of control | dose: 200.0 mg/kg/injection, schedule: Q01DX009 (ip), vehicle: other 89 % of control

C=Cn1ccnc1
inactive: dose: 6.25 mg/kg/injection, schedule: Q01DX009 (ip), vehicle: saline 100 % of control | [16] 103 % of control and 123 % of control | [17] 103 % of control | [18] 108 % of control and 113 % of control and 114 % of control | dose: 100.0 mg/kg/injection, schedule: Q01DX009 (ip), vehicle: saline 91 % of control

CCP(c1ccccc1)c1ccccc1
inactive: [8] 100 % of control | dose: 100.0 mg/kg/injection, schedule: Q01DX001 (ip), vehicle: saline 107 % of control | [9] 98 % of control | dose: 200.0 mg/kg/injection, schedule: Q01DX001 (ip), vehicle: saline 96 % of control | [10] 103 % of control | dose: 400.0 mg/kg/injection, schedule: Q01DX001 (ip), vehicle: saline 96 % of control | dose: 600.0 mg/kg/injection, schedule: Q01DX001 (ip), vehicle: Klucel (hydroxypropylcellulose) (HPC) 102 % of control

CCCC(C(CC)CNC(=O)Nc1cccc2ccccc12)N(C)C(=O)Nc1cccc2ccccc12 (stereo not drawn)
inactive: [11] 93 % of control | [12] 92 % of control | dose: 200.0 mg/kg/injection, schedule: Q01DX009 (ip), vehicle: saline with Tween-80 94 % of control | dose: 400.0 mg/kg/injection, schedule: Q01DX009 (ip), vehicle: saline with Tween-80 99 % of control

C=C(Cl)C(=NC(C)(C)C)Nc1ccccc1Cl
inactive: dose: 6.25 mg/kg/injection, schedule: Q01DX005 (ip), vehicle: saline 100 % of control | dose: 12.5 mg/kg/injection, schedule: Q01DX005 (ip), vehicle: saline 117 % of control | dose: 25.0 mg/kg/injection, schedule: Q01DX005 (ip), vehicle: saline 124 % of control | dose: 50.0 mg/kg/injection, schedule: Q01DX005 (ip), vehicle: saline 114 % of control and 120 % of control | dose: 100.0 mg/kg/injection, schedule: Q01DX005 (ip), vehicle: saline 118 % of control

Clc1c(Br)c(-c2ccccc2)nc2ccccc12
inactive: [13] 108 % of control | [14] 110 % of control | [15] 108 % of control

S=C=Nc1ccc(-c2csc(Nc3ccnc4cc(Cl)ccc34)n2)cc1
inactive: dose: 12.5 mg/kg/injection, schedule: Q01DX005 (ip), vehicle: saline with Tween-80 101 % of control | dose: 25.0 mg/kg/injection, schedule: Q01DX005 (ip), vehicle: saline with Tween-80 98 % of control | [13] 99 % of control and 91 % of control | [14] 94 % of control

C[N+]1(CI)CC2CC(C1)C[N+](C)(CI)C2 (stereo not drawn)
inactive: [16] 105 % of control | [17] 110 % of control | [18] 108 % of control

CCCCCCCCCCCCCC[N+]1([O-])CCCCCC1
inactive: [18] 90 % of control

Cc1ccc(S(=O)(=O)N(C)C2c3ccccc3Oc3ccccc32)cc1
inactive: [1] 106 % of control | [2] 106 % of control | [3] 106 % of control and 87 % of control | dose: 100.0 mg/kg/injection, schedule: Q01DX009 (ip), vehicle: Klucel (hydroxypropylcellulose) (HPC) 91 % of control | [4] 92 % of control | dose: 400.0 mg/kg/injection, schedule: Q01DX009 (ip), vehicle: Klucel (hydroxypropylcellulose) (HPC) 92 % of control
